The experiment concerns YAP. The experiment in a line: YAP immunofluorescence in BMDM. Format: cell-based, mouse. The following applies: day 5 BMDM, 10 µM 4 h, washed, confocal microscopy 3 h later. An excerpt: We speculated that the observed in vivo effect of MACTIDE‐V could be mediated by the modulation of macrophage phenotype elicited by Verteporfin, a drug that inhibits the co‐transcription factor Yes Associated Protein (YAP), and prevents the anti‐inflammatory shift in macrophages.^[ [26] ^] We therefore analyzed the effect of MACTIDE‐V on YAP localization and phenotypic changes in mouse bone marrow‐derived macrophages (BMDM) in vitro. We first treated BMDM with MACTIDE‐V, MACTIDE, or CtrlPep‐V and evaluated changes in YAP localization 3 h later using confocal microscopy. […] These observations are consistent with the reported effect of Verteporfin sequestering YAP in the cytoplasm.^[ [27], [28] ^]
Figure 6 MACTIDE‐V promotes a YAP‐ mediated anti‐ tumoral switch in bone marrow‐derived macrophages. Day 5 BMDM were incubated for 4 h with 10 µM conjugates, washed, and followed‐up in media. A) YAP Immunofluorescence (shown in red) was analyzed 3 h after treatment and B) phagocytosis of fluorescent E. coli particles at 48 h follow‐up. C) Flow cytometry on BMDM 48 h after treatment. Left panel, GeoMean of MHC II, CD206, CD80, and PD‐L1 in Balb/c BMDM. Median ± interquartile range. […] D) Heatmap of the mRNA expression of genes involved in the functional activation of BMDM, YAP signaling, and adhesion, measured by real‐time PCR 48 h after treatment in BALB/c BMDM. n = 3 independent experiments. […]

“Vert‐Ahx‐AKPCGS‐OH [CtrlPep‐V, reference compound]”: the YAP localization entry is recorded as “uniformly spread throughout the cell”.

As for “Vert‐Ahx‐G(CTKSIPPIC)SPGAK‐OH (disulfide) [MACTIDE‐V]”, the YAP localization entry was “excluded YAP from the nucleus”.

Values taken from article PMC11904948, “Peptide‐Drug Conjugate for Therapeutic Reprogramming of Tumor‐Associated Macrophages in Breast Cancer” (Advanced Science, 2025).
